Laboratory results published in doi:10.1101/2021.10.07.463234v2 (biorxiv, 2021).
Structures can show the parent of a compound that is named as a salt. Numbered stars: 1 amine (or outer) side, 2 acyl side, 3 side chain; on linkers, the order of the positions; unused ones are H or OH. Bridge positions count the residues as written; N and C are the ends. Square brackets hold non-standard residues; d marks the D form. Peptide text beside a SMILES is read from it. * marks the point of attachment. hTyr(3S-OH,4S-OH,3'-OSO3H) = N[C@H](C(=O)O)[C@H](O)[C@@H](O)c1ccc(O)c(OS(=O)(=O)O)c1; Orn(4R-OH,5R-OH) = O=C([C@H](C[C@@H](O)[C@@H](O)N[*:3])N[*:1])[*:2]; Pro(3S-OH,4S-Me) = C[C@H]1CN[C@H](C(=O)O)[C@H]1O; X1 = CCCCCOc1ccc(-c2cc(-c3ccc(C(=O)*)cc3)no2)cc1; Gln(3R-OH) = NC(=O)C[C@@H](O)[C@H](N)C(=O)O; Hyp = O=C(O)[C@@H]1C[C@@H](O)CN1

Target: SARS-CoV-2 Mac1 (Severe acute respiratory syndrome coronavirus 2, UniProt P0DTD1)
Assay: biochemical
Settings: for inhibition at 100 µM: read-out: %inhibition; for %inhibition: 100 µM, inhibitor

SMILES	inhibition at 100 µM	%inhibition
CCN(CC)CCNC(=O)c1cc(Cl)c(N)cc1OC [Metoclopramide HCl]	0%	–
Cc1ccccc1N1C(=O)c2cc(S(N)(=O)=O)c(Cl)cc2NC1C (centres unmarked) [Metolazone]	0%	–
COCCc1ccc(OCC(O)CNC(C)C)cc1 (centres unmarked) [Metoprolol Tartrate]	–	45.82%
COCCc1ccc(OCC(O)CNC(C)C)cc1 (centres unmarked) [Metoprolol succinate]	–	1.216%
COCCc1ccc(OCC(O)CNC(C)C)cc1 (centres unmarked) [Metoprolol]	–	3.241%
Cc1ncc([N+](=O)[O-])n1CCO [Metronidazole]	16.9%	–
CC(C)(C(=O)c1cccnc1)c1cccnc1 [Metyrapone]	5.33%	–
CC[C@H](C)C(=O)O[C@H]1CCC=C2C=C[C@H](C)[C@H](CC[C@@H]3C[C@@H](O)CC(=O)O3)[C@H]21 [Mevastatin]	12.1%	–
Cc1cccc(C)c1OCC(C)N (centres unmarked) [Mexiletine HCl]	9.05%	–
CC1(C)S[C@@H]2[C@H](NC(=O)[C@H](NC(=O)N3CCN(S(C)(=O)=O)C3=O)c3ccccc3)C(=O)N2[C@H]1C(=O)O [Mezlocillin Sodium]	6.75%	–
CCCCCOc1ccc(-c2cc(-c3ccc(C(=O)N[C@H]4C[C@@H](O)[C@@H](O)NC(=O)[C@@H]5[C@@H](O)[C@@H](C)CN5C(=O)[C@H]([C@H](O)CC(N)=O)NC(=O)[C@H]([C@H](O)[C@@H](O)c5ccc(O)c(OS(=O)(=O)O)c5)NC(=O)[C@@H]5C[C@@H](O)CN5C(=O)[C@H]([C@@H](C)O)NC4=O)cc3)no2)cc1 [Micafungin Sodium] (X1-[Orn(4R-OH,5R-OH)]T[Hyp][hTyr(3S-OH,4S-OH,3'-OSO3H)][Gln(3R-OH)][Pro(3S-OH,4S-Me)]; lactam 1-C)	0%	–
CCC(=O)O[C@@H]1CC(=O)O[C@H](C)C/C=C/C=C/[C@H](O)[C@H](C)C[C@H](CC=O)[C@H](O[C@@H]2O[C@H](C)[C@@H](O[C@H]3C[C@@](C)(O)[C@@H](OC(=O)CC)[C@H](C)O3)[C@H](N(C)C)[C@H]2O)[C@H]1OC [Midecamycin]	5.18%	–
CC#C[C@]1(O)CC[C@H]2[C@@H]3CCC4=CC(=O)CCC4=C3[C@@H](c3ccc(N(C)C)cc3)C[C@@]21C [Mifepristone]	8.31%	–
OCCN1C[C@H](O)[C@@H](O)[C@H](O)[C@H]1CO [Miglitol]	11%	–
Cc1[nH]c(=O)c(C#N)cc1-c1ccncc1 [Milrinone]	0%	–
CCCCCCCCCCCCCCCCOP(=O)([O-])OCC[N+](C)(C)C [Miltefosine]	0%	–
Cc1cc(-c2ccccc2)nnc1NCCN1CCOCC1 [Minaprine dihydrochloride]	2.13%	–
CN(C)c1ccc(O)c2c1C[C@H]1C[C@H]3[C@H](N(C)C)C(O)=C(C(N)=O)C(=O)[C@@]3(O)C(O)=C1C2=O [Minocycline HCl]	0%	–
Nc1cc(N2CCCCC2)nc(N)[n+]1OS(=O)(=O)[O-] [Minoxidil sulphate]	19%	–
Nc1nc(CC(=O)Nc2ccc(CCNC[C@H](O)c3ccccc3)cc2)cs1 [Mirabegron]	0%	–
CN1CCN2c3ncccc3Cc3ccccc3C2C1 (centres unmarked) [Mirtazapine]	7.99%	–
CO[C@@]12[C@H](COC(N)=O)C3=C(C(=O)C(C)=C(N)C3=O)N1C[C@@H]1N[C@@H]12 [Mitomycin C]	10.1%	–
Clc1ccc(C(c2ccccc2Cl)C(Cl)Cl)cc1 (centres unmarked) [Mitotane]	46.2%	–
O=C1c2c(O)ccc(O)c2C(=O)c2c(NCCNCCO)ccc(NCCNCCO)c21 [Mitoxantrone 2HCl]	74.8%	–

SMILES	inhibition at 100 µM	%inhibition
NC(=O)c1ncn([C@@H]2O[C@H](CO)[C@@H](O)[C@H]2O)c1O [Mizoribine]	0%	–
Nc1ccccc1NC(=O)c1ccc(CNc2nccc(-c3cccnc3)n2)cc1 [Mocetinostat (MGCD0103)]	7.18%	–
O=C(NCCN1CCOCC1)c1ccc(Cl)cc1 [Moclobemide (Ro 111163)]	0%	–
CCOC(=O)[C@H](CCc1ccccc1)N[C@@H](C)C(=O)N1Cc2cc(OC)c(OC)cc2C[C@H]1C(=O)O [Moexipril HCl]	0%	–
CCOC(=O)CC(=O)N1CCSC1COc1ccccc1OC (centres unmarked) [Moguisteine]	13%	–
O=c1c(-n2ccnn2)c[nH]n1-c1cc(N2CCOCC2)ncn1 [Molidustat (BAY 85-3934)]	19.3%	–
CCc1c(C)[nH]c2c1C(=O)C(CN1CCOCC1)CC2 (centres unmarked) [Molindone hydrochloride]	0%	–
CCOC(=O)[N-]c1c[n+](N2CCOCC2)no1 [Molsidomine]	0%	–
C[C@@H]1C[C@H]2[C@@H]3CCC4=CC(=O)C=C[C@]4(C)[C@@]3(Cl)[C@@H](O)C[C@]2(C)[C@@]1(OC(=O)c1ccco1)C(=O)CCl [Mometasone furoate]	7.49%	–
Oc1ccc(OCc2ccccc2)cc1 [Monobenzone]	0%	–
N=C(N)NC(=N)N1CCOCC1 [Moroxydine HCl]	0.197%	–
CCOc1cc(N)c(Cl)cc1C(=O)NCC1CN(Cc2ccc(F)cc2)CCO1 (centres unmarked) [Mosapride]	0%	–
CCCN(CCC)C(=O)C1=Cc2ccc(-c3ccc(C(=O)N4CCCC4)cc3)cc2N=C(N)C1 [Motolimod (VTX-2337)]	0%	–
CO/N=C1\C[C@]2(C[C@@H]3C[C@@H](C/C=C(\C)C[C@@H](C)/C=C/C=C4\CO[C@@H]5[C@H](O)C(C)=C[C@@H](C(=O)O3)[C@]45O)O2)O[C@H](/C(C)=C/C(C)C)[C@H]1C [Moxidectin]	7.63%	–
COc1c(N2C[C@@H]3CCCN[C@@H]3C2)c(F)cc2c(=O)c(C(=O)O)cn(C3CC3)c12 [Moxifloxacin HCl]	–	0%
COc1c(N2C[C@@H]3CCCN[C@@H]3C2)c(F)cc2c(=O)c(C(=O)O)cn(C3CC3)c12 [Moxifloxacin]	–	6.66%
COc1nc(C)nc(Cl)c1NC1=NCCN1 [Moxonidine]	0%	–
Cc1ccccc1C(=O)Nc1ccc(C(=O)N2CCCC(N(C)C)c3ccccc32)cc1 (centres unmarked) [Mozavaptan]	21.9%	–
FC(F)(F)c1ccc(/C=C/c2nc(COc3ccc(CCCCn4ccnn4)cc3)co2)cc1 [Mubritinib (TAK 165)]	0%	–
C/C(=C\C(=O)OCCCCCCCCC(=O)O)C[C@@H]1OC[C@H](C[C@@H]2O[C@H]2[C@@H](C)[C@H](C)O)[C@@H](O)[C@H]1O [Mupirocin calcium]	–	3.887%
C/C(=C\C(=O)OCCCCCCCCC(=O)O)C[C@@H]1OC[C@H](C[C@@H]2O[C@H]2[C@@H](C)[C@H](C)O)[C@@H](O)[C@H]1O [Mupirocin]	–	0%
COc1c(C)c2c(c(O)c1C/C=C(\C)CCC(=O)OCCN1CCOCC1)C(=O)OC2 [Mycophenolate Mofetil]	0%	–
COc1c(C)c2c(c(O)c1C/C=C(\C)CCC(=O)O)C(=O)OC2 [Mycophenolic acid]	0%	–
COc1ccc2[nH]c([S@@+]([O-])Cc3ncc(C)c(OC)c3C)nc2c1 [NEXIUM (esomeprazole magnesium)]	–	21.09%

SMILES	inhibition at 100 µM	%inhibition
COc1ccc2cc(CCC(C)=O)ccc2c1 [Nabumetone]	0%	–
CC1CCc2c(N3CCC(O)CC3)c(F)cc3c(=O)c(C(=O)O)cn1c23 (centres unmarked) [Nadifloxacin]	0%	–
N=C(N)Nc1ccc(C(=O)Oc2ccc3cc(C(=N)N)ccc3c2)cc1 [Nafamostat Mesylate]	0%	–
CCOc1ccc2ccccc2c1C(=O)N[C@@H]1C(=O)N2[C@@H]1SC(C)(C)[C@@H]2C(=O)O [Nafcillin Sodium]	0%	–
COc1ccccc1N1CCN(CC(O)COc2cccc3ccccc23)CC1 (centres unmarked) [Naftopidil DiHCl]	–	0%
COc1ccccc1N1CCN(CC(O)COc2cccc3ccccc23)CC1 (centres unmarked) [Naftopidil]	–	1.252%
CCn1cc(C(=O)O)c(=O)c2ccc(C)nc21 [Nalidixic acid]	0%	–
C=C1CC[C@@]2(O)[C@H]3Cc4ccc(O)c5c4[C@@]2(CCN3CC2CC2)[C@H]1O5 [Nalmefene HCl]	0%	–
O=C1CC[C@@]2(O)[C@H]3Cc4ccc(O)c5c4[C@@]2(CCN3CC2CC2)[C@H]1O5 [Naltrexone HCl]	0%	–
CC(=O)c1cc2c(o1)C(=O)c1ccccc1C2=O [Napabucasin]	6.24%	–
c1ccc2c(CC3=NCCN3)cccc2c1 [Naphazoline HCl]	8.42%	–
COc1ccc2cc([C@H](C)C(=O)O)ccc2c1 [Naproxen Sodium]	0%	–
CNS(=O)(=O)CCc1ccc2[nH]cc(C3CCN(C)CC3)c2c1 [Naratriptan HCl]	0%	–
C[C@@H]1C/C=C/C=C/C=C/C=C/[C@H](O[C@@H]2O[C@H](C)[C@@H](O)[C@H](N)[C@@H]2O)C[C@@H]2O[C@](O)(C[C@@H](O)C[C@H]3O[C@@H]3/C=C/C(=O)O1)C[C@H](O)[C@H]2C(=O)O [Natamycin]	0%	–
CC(C)[C@H]1CC[C@H](C(=O)N[C@H](Cc2ccccc2)C(=O)O)CC1 [Nateglinide]	0%	–
O[C@H](CNC[C@@H](O)[C@H]1CCc2cc(F)ccc2O1)[C@@H]1CCc2cc(F)ccc2O1 [Nebivolol HCl]	0%	–
CCc1nn(CCCN2CCN(c3cccc(Cl)c3)CC2)c(=O)n1CCOc1ccccc1 [Nefazodone hydrochloride]	14%	–
Cc1cccc(C)c1NC(=O)CN1CCCC1=O [Nefiracetam]	8.32%	–
CN1CCOC(c2ccccc2)c2ccccc2C1 (centres unmarked) [Nefopam HCl]	0%	–
COc1nc(N)nc2c1ncn2[C@@H]1O[C@H](CO)[C@@H](O)[C@@H]1O [Nelarabine]	50.5%	–
Cc1c(O)cccc1C(=O)N[C@@H](CSc1ccccc1)[C@H](O)CN1C[C@H]2CCCC[C@H]2C[C@H]1C(=O)NC(C)(C)C [Nelfinavir Mesylate]	0.155%	–
NC[C@@H]1O[C@H](O[C@H]2[C@@H](O)[C@H](O[C@@H]3[C@@H](O)[C@H](N)C[C@H](N)[C@H]3O[C@H]3O[C@H](CN)[C@@H](O)[C@H](O)[C@H]3N)O[C@@H]2CO)[C@H](N)[C@@H](O)[C@@H]1O [Neomycin sulfate]	0%	–
CN(C)C(=O)Oc1cccc([N+](C)(C)C)c1 [Neostigmine Bromide]	0%	–
